# Data: patent EP4700040A1, “PEPTIDE AND LUMINESCENT COMPLEX CONTAINING SAME” (Shenzhen Loggene Life Science & Technology Co., Ltd., priority 2023, dated 2024)
# Experiments:
# Type in all cases: biochemical, human
# PCT [1] = test: Complementary activity of small subunits mutated at conserved positions, Furimazine substrate (Example 6); details: MBP-PCT 3.3 ng/ml, supernatant; for activity (luminescence signal value), 3 min: 3 min after Furimazine 25 µM; for activity (luminescence signal value), 6 min: 6 min after Furimazine 25 µM
# Method: Detection Methods: • (1) The concentration of large subunit-rSCFV5 fusion protein was diluted to 12.5 nM, and 15 µl was added per well; • (2) MBP-PCT fusion protein was diluted to 3.3 ng/ml with PBSAD, and 10 µl was added per well; • (3) HB2151 strain containing plasmids with different small subunit sequences were induced by IPTG at 30°C overnight, then treated with polymyxin B for 1.5h, and centrifuged to collect the supernatant, and 2.5µl supernatant was added per well; • (4) The above three components were slightly mixed, incubated at 37°C for 7 min, and Obuffer 6.37-3 containing Furimazine at a concentration of 25 µM was added, […], the luminescence signal value was detected using a bioluminescence detector; and • (5) Clones with RLU higher than 10,000 were picked. The substrate was replaced with CTZ-h substrate for retesting (Obuffer 6.37-3 containing CTZ-h at a concentration of 25 µM was added, and after 60 s, the luminescence signal value was detected using a bioluminescence detector), and a PBSAD control was added to test the signal-to-noise ratio.
# In order to further determine whether these three conserved amino acid sequences were changed, this example constructed a random mutation library of these three positions, with a theoretical diversity of 8,000 and a library capacity of 10^6, and 2,000 single clones were picked. The method of protein induction and expression was the same as that in Example 1. The complementary activity was tested in the same manner as that in Example 4, but the signal-to-noise ratio was not retested with CTZ-h. Clones with different activity were randomly picked for sequencing.
# PCT [2] = test: Luciferase dual-antibody complementary activation assay for PCT detection, clone supernatants, retest with CTZ-h (Example 1); details: for Signal-to-noise ratio: RLU antigen+/RLU antigen-, MBP-PCT 3.3 ng/ml, CTZ-h; for PCT+: luminescence signal value with MBP-PCT 3.3 ng/ml, large subunit-rSCFV5 50 nM, supernatant; for PCT+ / PCT-: retest CTZ-h 25 µM, read after 60 s; for PCT-: luminescence signal value, background control PBSAD without PCT
# Method: In order to improve the signal-to-noise ratio and complementary activity of the luciferase dual-antibody complementary activation assay, a series of complementary luciferase small subunits were prepared in this example. Large subunit-rSCFV5 fusion protein (SEQ ID NO: 87) was kept unchanged, and the small subunit sequence of the rSCFV18-small subunit P114 fusion protein (SEQ ID NO: 88) was modified by semi-randomization to prepare rSCFV18-small subunit mutant fusion proteins. Based on the sequence of small subunit P114, and with reference to the 3D structure of complementary luciferase, computer-aided sequence design was employed to generate a library with a theoretical diversity of 2.49*10^6. Primers were designed for PCR amplification using the plasmid pComb3x of rSCFV18-small subunit P114 fusion protein as a template. Subsequently, an expression vector library was constructed by means of restriction digestion and ligation (SfiI, NheI), and a semi-random amino acid mutation library was introduced into the small subunit position and transformed into HB2151 competent cells, yielding a library capacity of 7.6*10^9. The 100 plates were spread, and 9,500 single clones were picked and inoculated into 600 µL of 2YTA medium, followed by incubation at 37°C with shaking at 250 rpm for 2 h. When the bacterial density reached approximately OD600 = 0.6~1.0, IPTG was then added to a final concentration of 1 mM, and the culture was further incubated at 30°C with shaking at 250 rpm for 20 h. The next day, the bacteria were collected by centrifugation at 4°C, 4,500g for 10min. The supernatant was discarded, and the precipitate was resuspended with 200µl of PBS containing polymyxin B at a final concentration of 20,000 u/ml. The suspension was incubated at room temperature with shaking at 100rpm for 1h, and then centrifuged at 4500g for 10min, and the supernatant was used for the test.
# Test Methods: • (1) The concentration of large subunit-rSCFV5 fusion protein was diluted to 50 nM, and 15 µl was added per well; • (2) MBP-PCT fusion protein was diluted to 3.3 ng/ml with PBSAD, and 15 µl was added per well. The background control was PBSAD, and 10 µl was added per well; • (3) HB2151 strain containing expression plasmids with different small subunit were induced by 1 mM of IPTG at 30°C overnight, then treated with polymyxin B for 1.5 h, and centrifuged to collect the supernatant, and 2.5 µl supernatant was added per well; • (4) The above three components were slightly mixed, incubated at 37°C for 7 min, and Obuffer 6.37-3 containing Furimazine at a concentration of 25 µM was added, and after 80 s, the luminescence signal value was detected using a bioluminescence detector; and • (5) Clones with RLU higher than 10,000 and a signal-to-noise ratio (RLU antigen+/RLU antigen-) higher than that of the rSCFV18-small subunit P114 fusion protein were selected for retesting. The substrate was replaced with CTZ-h for retesting. Obuffer 6.37-3 containing CTZ-h at a concentration of 25 µM was added, and after 60 s, the luminescence signal value was detected using a bioluminescence detector.
# PCT [3] = test: Signal-to-noise ratio and linear range for PCT detection, purified fusion proteins (Example 3); parameters: key to luminescence value: luminescence normalized against the background value; details: for Signal-to-noise ratio at 1000 pg/ml: large subunit 100 nM, small subunit fusion 180 nM, CTZ-h 25 µM, 140 s; for signal-to-noise ratios in luciferase dual-antibody complementary activation for PCT detection: statement in words on Table 3 and Figure 2
# Method: Test Methods: • (1) MBP-PCT protein was diluted with PBSAD in 10-fold gradient starting from 100 ng/ml, with 8 gradients in total, and 10 µl was added per well; • (2) The large subunit-SCFV5 fusion protein was diluted with PBSA to 100 nM, and 10 µl was added per well; • (3) Different rSCFV18-small subunit mutant fusion proteins were diluted with PBSA to 180 nM, and 10 µl of each was added per well; • (4) The plate was mixed slightly and incubated at 37°C for 10 min; and • (5) 50 µl of Obuffer 6.37-3 containing 25 µM of CTZ-h was added, and after 140 s, the luminescence value was detected. The results are shown after normalization against the background value.
# PCT [4] = test: as above; parameters: key: luminescence normalized against the background value; details: PCT 3.3 (pg/ml); normalized against the background value
# PCT [5] = test: Complementation of purified rSCFV18-small subunit mutant fusion protein with large subunit-rSCFV5 fusion protein, PCT gradient (Example 2); details: for luminescence value: CTZ-h 25 µM, 20 s; for Signal-to-noise ratio at 1000 pg/ml: PCT 1000 pg/ml versus 0
# Method: Protein expression and purification of small subunit mutants: The strains containing plasmids of different small subunits inTable 2, prepared in Example 1, were inoculated into 200ml of 2YTA medium and cultured at 37°C with shaking at 250 rpm for about 3h. When the OD600 reached 1.0, IPTG was added to a final concentration of 1mM, and the culture was further incubated at 30°C with shaking at 250rpm for 20h. The culture were centrifuged at 5,000g for 10min, and the precipitate was resuspended with 10ml of PBS, added with polymyxin B to 20,000u/ml. The suspension was inverted and mixed at room temperature for 1h, and centrifuged at 10,000g to collect the supernatant. The rSCFV18-small subunit mutant fusion protein was purified according to the standard procedure for his-tag protein purification using Ni-NTA resin.
# In the same tube, the large subunit-rSCFV5 fusion protein was diluted with PBSA to 50 nM; rSCFV18-small subunit mutant fusion protein was diluted to 90 nM, mixed well, and then 22 µl was added per well; the MBP-PCT fusion protein was diluted in 3-fold gradient with PBSAD (in pg/ml), with 8 gradients in total, 10µl was added per well, and the background control was PBSAD and 10 µl was added per well; the plate was mixed with slight shaking and incubated at 37°C for 6 min, 50 µl of Obuffer 6.37-3 containing 25 µM of CTZ-h then was added, and after 20 s, the luminescence value was detected.
# [6] = PCT 100 (pg/ml), normalized against the background value
# [7] = PCT 1000 (pg/ml), normalized against the background value
# [8] = PCT 10000 (pg/ml), normalized against the background value
# [9] = PCT 100000 (pg/ml), normalized against the background value
# [10] = PCT 0 pg/ml (background control PBSAD)
# [11] = PCT 1000 pg/ml, large subunit 50 nM, small subunit fusion 90 nM
Sequence,"activity (luminescence signal value), 3 min (PCT [1])","activity (luminescence signal value), 6 min (PCT [1])",Signal-to-noise ratio (PCT [2]),PCT+ (PCT [2]),PCT- (PCT [2]),"luminescence value (PCT [3]; PCT 0, background, normalized)",luminescence value (PCT [3]; [6]),luminescence value (PCT [3]; [7]),luminescence value (PCT [3]; [8]),luminescence value (PCT [3]; [9]),Signal-to-noise ratio at 1000 pg/ml (PCT [3]),signal-to-noise ratios in luciferase dual-antibody complementary activation for PCT detection (PCT [3]),luminescence value (PCT [4]),also measured
AEGYHLFRSKS [RD-108],50,53,,,,,,,,,,,,
AEGYRLFDRKS [RD-012],3586,2963,,,,,,,,,,,,
AEGYRLFDRKS [RD-045],2398,2087,,,,,,,,,,,,
AEGYRLFDRKS [RD-086],3394,3222,,,,,,,,,,,,
AEPYRIFDRKS [RD-099],221,52,,,,,,,,,,,,
AESYKLFDRKS [RD-100],44,214,,,,,,,,,,,,
IEGYRLFDRKS [RD-084],2497,2394,,,,,,,,,,,,
IEGYRLFDRKS [RD-092],4905,4539,,,,,,,,,,,,
VDGWRLHEKIS [RA141],,,65.1,30623,463,5000,8685,42762,333241,1399433,8.6,higher signal-to-noise ratios,5414,
VEGWRLHEKIS [RA116],,,45.5,55957,1204,5000,11673,69976,515360,1784513,14.0,higher signal-to-noise ratios,5301,luminescence value (PCT [5]; [10]): 362; luminescence value (PCT [5]; PCT 1.37 pg/ml): 406; luminescence value (PCT [5]; PCT 4.12 pg/ml): 473; luminescence value (PCT [5]; PCT 12.35 pg/ml): 602; luminescence value (PCT [5]; PCT 37.04 pg/ml): 1212; luminescence value (PCT [5]; PCT 111.1 pg/ml): 2700; luminescence value (PCT [5]; PCT 333.3 pg/ml): 7341; Signal-to-noise ratio at 1000 pg/ml (PCT [5]): 56.6; luminescence value (PCT [5]; [11]): 20492
VEGYHLFDRKS [RD-103],211,204,,,,,,,,,,,,
VEGYRLFDKKW [RB239],,,67.7,31936,465,5000,11004,57648,466004,2167580,11.5,higher signal-to-noise ratios,5622,luminescence value (PCT [5]; [10]): 288; luminescence value (PCT [5]; PCT 1.37 pg/ml): 301; luminescence value (PCT [5]; PCT 4.12 pg/ml): 332; luminescence value (PCT [5]; PCT 12.35 pg/ml): 407; luminescence value (PCT [5]; PCT 37.04 pg/ml): 590; luminescence value (PCT [5]; PCT 111.1 pg/ml): 1318; luminescence value (PCT [5]; PCT 333.3 pg/ml): 3364; Signal-to-noise ratio at 1000 pg/ml (PCT [5]): 31.1; luminescence value (PCT [5]; [11]): 8952
VEGYRLFNKEW [RB284],,,12.2,3993,302,5000,7039,24677,187742,861878,4.9,higher signal-to-noise ratios,5288,
VEPYKLFDRKS [RD-098],214,49,,,,,,,,,,,,
VEPYKLFDRKS [RD-104],215,222,,,,,,,,,,,,
VSGWRIHEKIS [RA120],,,36.9,81063,2139,5000,13450,90072,694625,1999707,18.0,higher signal-to-noise ratios,5257,
